Measured values as given in US8431170B2, “Antimicrobial composition with low cytotoxicity” (Oy Granula AB Ltd., priority 2008, dated 2013).
Read-outs that look alike come from different tables or passages of the source.

Key:
[1] = Antioxidative capacity: inhibition of the peroxidation of lipids; type: biochemical; settings: pure polyphenols isolated from wood material
Excerpt: In Tables 4A, 4B, 4C and 4D, there are represented antioxidative and free radical capturing effects of pure polyphenolic compounds and of unrefined polyphenolic compounds containing raw extracts obtained from wood bark and knotty stemwood. Tables 4A and 4B represent the antioxidative effect of a few pure polyphenols and of unrefined polyphenolic compounds containing raw extracts, obtained from wood bark and knotty stemwood. Tables 4C and 4D in turn illustrate the peroxide radicals capturing capacity of a few pure polyphenols and of unrefined, polyphenolic compounds containing raw extracts, obtained from wood bark and knotty stemwood. In Tables 4A-4D, it can be observed that the antioxidative and free radical capturing properties of solutions containing pure polyphenol compounds, obtained from wood material in hydrophilic extraction, are often remarkably different from the corresponding properties of compound mixtures containing unrefined raw extract solutions and obtained from wood material in hydrophilic extraction, owing to the synergetic effects of the compounds contained in the compound mixtures in unrefined extracts. The compound mixtures according to the invention are obtained from these unrefined raw extract solutions.

[2] = Peroxide radicals capturing capacity; type: biochemical; settings: pure polyphenols isolated from wood material
Excerpt: Tables 4C and 4D further represent the free radicals capturing capacity of certain pure polyphenols and unrefined polyphenol extracts with respect to peroxide radicals. Tables 4A and 4B represent the antioxidative effect of a few pure polyphenols and of unrefined polyphenolic compounds containing raw extracts, obtained from wood bark and knotty stemwood. Tables 4C and 4D in turn illustrate the peroxide radicals capturing capacity of a few pure polyphenols and of unrefined, polyphenolic compounds containing raw extracts, obtained from wood bark and knotty stemwood. In Tables 4A-4D, it can be observed that the antioxidative and free radical capturing properties of solutions containing pure polyphenol compounds, obtained from wood material in hydrophilic extraction, are often remarkably different from the corresponding properties of compound mixtures containing unrefined raw extract solutions and obtained from wood material in hydrophilic extraction, owing to the synergetic effects of the compounds contained in the compound mixtures in unrefined extracts. The compound mixtures according to the invention are obtained from these unrefined raw extract solutions.

[3] = pure polyphenols; values marked 1: Willför et al., J. Agric. Food Chem. 51, 7600-7606 (2003); cited from earlier work
[4] = pure polyphenols; values marked 1: Willför et al., J. Agric. Food Chem. 51 (2003); cited from earlier work
human keratinocyte cells = type: cell-based

Pinoresinol
EC50 which inhibits 50% of the peroxidation of the lipids [1]: 0.02 µg/mL | Peroxide radicals capturing capacity [2]: 7.8 mmol/g

O=C1C[C@@H](c2ccccc2)Oc2cc(O)cc(O)c21 [Pinosembrin]
EC50 which inhibits 50% of the peroxidation of the lipids [1]: 1.135 µg/mL | Peroxide radicals capturing capacity [2]: 0.49 mmol/g

O=C1c2c(O)cc(O)cc2O[C@H](c2ccc(O)c(O)c2)[C@H]1O [Taxifolin]
Peroxide radicals capturing capacity [3]: 16 mmol/g | EC50 which inhibits 50% of the peroxidation of the lipids [4]: 0.046 µg/mL

COc1cc(C[C@H]2COC(=O)[C@@H]2Cc2ccc(O)c(OC)c2)ccc1O [Matairesinol]
Peroxide radicals capturing capacity [3]: 2.9 mmol/g | EC50 which inhibits 50% of the peroxidation of the lipids [4]: 0.099 µg/mL

Oc1ccc([C@H]2Oc3c(ccc(O)c3O)[C@@H](O)[C@H]2O)cc1 [Teracasidine]
EC50 which inhibits 50% of the peroxidation of the lipids [1]: 0.05 µg/mL | Peroxide radicals capturing capacity [2]: 7.8 mmol/g

Oc1cc(O)cc(/C=C/c2ccccc2)c1 [Pinosylvin]
EC50 which inhibits 50% of the peroxidation of the lipids [1]: 0.05 µg/mL | Peroxide radicals capturing capacity [2]: 0.78 mmol/g

Cc1cc(C(C)(C)C)c(O)c(C(C)(C)C)c1 [BTH, butylated hydroxytoluene]
EC20 (limit value by which 20% of the cultivated cells died) (human keratinocyte cells; human, 24 h): 5.50 ppm | times more cytotoxic than HMR powder (human keratinocyte cells; ratio to HMR powder): 10-20 times

O=C1c2c(O)cc(O)cc2O[C@H](c2ccc(O)cc2)[C@H]1O [Dihydrokaempferol]
EC50 which inhibits 50% of the peroxidation of the lipids [1]: 0.488 µg/mL | Peroxide radicals capturing capacity [2]: 0.78 mmol/g

COc1cc(C[C@H]2COC(=O)[C@]2(O)Cc2ccc(O)c(OC)c2)ccc1O [Nortrachelogenin]
Peroxide radicals capturing capacity [3]: 5.9 mmol/g | EC50 which inhibits 50% of the peroxidation of the lipids [4]: 0.053 µg/mL

Oc1ccc([C@H]2Oc3c(ccc(O)c3O)[C@@H](O)[C@H]2O)cc1O [Melacasidine]
EC50 which inhibits 50% of the peroxidation of the lipids [1]: 0.036 µg/mL | Peroxide radicals capturing capacity [2]: 20 mmol/g

COc1cc([C@H]2c3cc(O)c(OC)cc3C[C@@H](CO)[C@@H]2CO)ccc1O [Cyclolariciresinol]
EC50 which inhibits 50% of the peroxidation of the lipids [1]: 0.017 µg/mL | Peroxide radicals capturing capacity [2]: 12 mmol/g

COc1cc(C[C@H]2CO[C@H](c3ccc(O)c(OC)c3)[C@H]2CO)ccc1O [Lariciresinol]
Peroxide radicals capturing capacity [3]: 2.7 mmol/g | EC50 which inhibits 50% of the peroxidation of the lipids [4]: 0.126 µg/mL

COc1cc(C[C@H]2C(=O)OC[C@@H]2[C@H](O)c2ccc(O)c(OC)c2)ccc1O [Hydroxymatairesinol]
Peroxide radicals capturing capacity [3]: 5.6 mmol/g | EC50 which inhibits 50% of the peroxidation of the lipids [4]: 0.058 µg/mL

COc1cc(C[C@@H](CO)[C@H](CO)Cc2ccc(O)c(OC)c2)ccc1O [Secoisolariciresinol]
Peroxide radicals capturing capacity [3]: 8.5 mmol/g | EC50 which inhibits 50% of the peroxidation of the lipids [4]: 0.037 µg/mL
